Converted amounts (≈) assume the structure as drawn.
Experiments:
[1] = Lyophilisation Solubility Assay (LYSA); type: physicochemical; details: aqueous buffer, thermodynamic from solid, 0.05 M phosphate buffer pH 6.5
Experimental: The procedure of this automatic high throughput assay can be separated into two steps. First, DMSO stock solutions of test compounds are diluted in order to prepare four point calibration curves. The peak area at an optimal wavelength for each test compound is determined automatically by Ultra Fast Liquid Chromatography. The extraction of peak areas and retention times from the raw data is performed automatically. Using four concentrations and the related peak areas, slope and intercept of the calibration line is calculated. The correlation coefficient of the obtained regression line should be greater than 0.99. In the second phase, the sample solutions are prepared in duplicate from the DMSO stock solutions. The DMSO was removed using an evaporator. After evaporation of the DMSO, the solid drugs were solved in 0.05 M phosphate buffer (pH 6.5), stirred for one hour and afterwards shaken for two hours. After standing overnight (about 20 hours), the solutions are filtered using a microtiter filter plate. The filtrate and its 1/10 dilutions are then analyzed automatically by High Performance Liquid Chromatography (HPLC). The peak areas and retention times of the samples were extracted at the same wavelength used for the calibration.
The solubility is calculated using the following equation: S=(A−b)/a(×10 for the sample diluted 1/10)
Where S is the solubility in μg/mL; A is the peak area of the sample; a is the slope and b is the intercept of the calibration curve.

[2] = target: T1, human mGlu5a receptor (Homo sapiens, UniProt P41594); experiment: Intracellular Ca2+ mobilization assay (mGlu5 PAM); type: cell-based; details: HEK-293 cells expressing human mGlu5a; L-glutamate at EC20
T1 construct: expressed in transfected cells; host or cells: HEK-293 (monoclonal, stably transfected)
Experimental: A monoclonal HEK-293 cell line stably transfected with a cDNA encoding for the human mGlu5a receptor was generated; for the work with mGlu5 Positive Allosteric Modulators (PAMs), a cell line with low receptor expression levels and low constitutive receptor activity was selected to allow the differentiation of agonistic versus PAM activity. Cells were cultured according to standard protocols (Freshney, 2000) in Dulbecco's Modified Eagle Medium with high glucose supplemented with 1 mM glutamine, 10% (vol/vol) heat-inactivated bovine calf serum, Penicillin/Streptomycin, 50 μg/ml hygromycin and 15 μg/ml blasticidin (all cell culture reagents and antibiotics from Invitrogen, Basel, Switzerland).
About 24 hrs before an experiment, 5×10^4 cells/well were seeded in poly-D-lysine coated, black/clear-bottomed 96-well plates. The cells were loaded with 2.5 μM Fluo-4AM in loading buffer (1×HBSS, 20 mM HEPES) for 1 hr at 37° C. and washed five times with loading buffer. The cells were transferred into a Functional Drug Screening System 7000 (Hamamatsu, Paris, France), and 11 half logarithmic serial dilutions of test compound at 37° C. were added and the cells were incubated for 10-30 min. with on-line recording of fluorescence. Following this pre-incubation step, the agonist L-glutamate was added to the cells at a concentration corresponding to EC20 (typically around 80 μM) with on-line recording of fluorescence; in order to account for day-to-day variations in the responsiveness of cells, the EC20 of glutamate was determined immediately ahead of each experiment by recording of a full dose-response curve of glutamate.
Responses were measured as peak increase in fluorescence minus basal (i.e. fluorescence without addition of L-glutamate), normalized to the maximal stimulatory effect obtained with saturating concentrations of L-glutamate. Graphs were plotted with the % maximal stimulatory using XLfit, a curve fitting program that iteratively plots the data using Levenburg Marquardt algorithm. The single site competition analysis equation used was y=A+((B−A)/(1+((x/C)D))), where y is the % maximal stimulatory effect, A is the minimum y, B is the maximum y, C is the EC50, x is the log 10 of the concentration of the competing compound and D is the slope of the curve (the Hill Coefficient). From these curves the EC50 (concentration at which half maximal stimulation was achieved), the Hill coefficient as well as the maximal response in % of the maximal stimulatory effect obtained with saturating concentrations of L-glutamate were calculated.
A depression of the signal observed after addition of the EC20 concentration of L-glutamate was indicative of an inhibitory activity of the test compound.

[3] = Spontaneous Glutathione (GSH) Addition Assay; design: key: Samples for which the mass of a covalent adduct was clearly detected (M+307) are indicated as FLAG (positive); Compounds for which no adduct was detected are designated NO FLAG (negative); details: 10 μM test substance, 5 mM GSH, pH 7.4 phosphate buffer, 24 hours, room temperature; adduct by MS
Experimental: 10 μM of test substance dissolved in pH 7.4 phosphate buffer was incubated with 5 mM GSH (glutathione) for 24 hours at room temperature. The samples were then analyzed using a mass spectrometer to determine whether adducts between glutathione and the drug had been formed. Samples for which the mass of a covalent adduct was clearly detected (M+307) are indicated as FLAG (positive). Compounds for which no adduct was detected are designated NO FLAG (negative).

[4] = Solubility by 24 h equilibration in phosphate buffer, manual conventional HPLC (reference compound 106); type: physicochemical; details: aqueous buffer, thermodynamic from solid, equilibrated 24 h in 0.05 M phosphate buffer pH 6.5
Experimental: In the case of reference compound 106, the compound was equilibrated for 24 h in 0.05 M phosphate buffer (pH 6.5) using a procedure identical to that performed with the LYSA assay. The amount of solute present was then directly determined using manual conventional HPLC analytics.

T1 sequence (P41594 21-1180 isoform P41594-2 limits assumed): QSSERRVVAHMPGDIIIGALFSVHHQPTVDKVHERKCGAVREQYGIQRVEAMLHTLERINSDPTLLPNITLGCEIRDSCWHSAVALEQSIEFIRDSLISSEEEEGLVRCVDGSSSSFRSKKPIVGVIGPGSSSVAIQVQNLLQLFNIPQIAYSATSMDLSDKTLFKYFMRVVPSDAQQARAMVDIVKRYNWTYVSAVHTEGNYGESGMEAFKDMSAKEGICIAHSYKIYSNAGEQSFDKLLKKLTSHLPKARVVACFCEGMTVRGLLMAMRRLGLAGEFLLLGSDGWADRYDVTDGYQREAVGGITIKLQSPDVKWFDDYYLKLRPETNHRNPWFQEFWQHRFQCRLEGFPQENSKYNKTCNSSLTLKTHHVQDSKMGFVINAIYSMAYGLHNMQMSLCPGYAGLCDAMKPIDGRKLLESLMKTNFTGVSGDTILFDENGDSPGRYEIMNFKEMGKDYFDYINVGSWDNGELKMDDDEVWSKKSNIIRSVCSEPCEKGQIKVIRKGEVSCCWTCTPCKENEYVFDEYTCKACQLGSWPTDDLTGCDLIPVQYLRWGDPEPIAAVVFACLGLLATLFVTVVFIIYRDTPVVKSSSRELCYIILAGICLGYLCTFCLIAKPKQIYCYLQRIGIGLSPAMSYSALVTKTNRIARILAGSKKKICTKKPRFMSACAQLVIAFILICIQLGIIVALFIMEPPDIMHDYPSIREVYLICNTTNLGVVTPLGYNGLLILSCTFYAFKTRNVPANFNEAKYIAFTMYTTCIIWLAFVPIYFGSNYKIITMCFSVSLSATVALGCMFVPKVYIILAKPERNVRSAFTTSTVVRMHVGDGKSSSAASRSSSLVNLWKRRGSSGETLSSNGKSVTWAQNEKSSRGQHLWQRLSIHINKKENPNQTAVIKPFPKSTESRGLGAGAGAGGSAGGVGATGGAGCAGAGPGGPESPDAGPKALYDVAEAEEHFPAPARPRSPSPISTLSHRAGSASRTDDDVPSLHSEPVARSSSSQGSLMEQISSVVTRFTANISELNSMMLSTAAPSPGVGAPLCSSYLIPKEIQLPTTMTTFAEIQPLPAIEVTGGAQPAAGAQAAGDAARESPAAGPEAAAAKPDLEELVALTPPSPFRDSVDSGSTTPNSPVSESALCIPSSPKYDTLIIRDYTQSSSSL

Row | Compound | solubility [1] [µg/mL] | EC50 [2] [nM] | GSH assay [3] | solubility at 24 h [4] [µg/mL]
1 | CN1C(=O)N(c2ccc(C#Cc3cccc(F)c3)nn2)[C@@H]2CCC[C@@H]21 (racemic) [Ref. 1 Ex. 174, reference compound] | < 1 | 11.9 | FLAG | 
2 | CCN1C(=O)N(c2ncc(C#Cc3ccccc3)cn2)[C@@H]2CCC[C@@H]21 [Example 1, (−)-(3aR,6aS)-1-Ethyl-3-(5-phenylethynyl-pyrimidin-2-yl)-hexahydro-cyclopentaimidazol-2-one] | 8 (≈ 24.1 µM) | 9.1 | NO FLAG | 
3 | CCN1C(=O)N(c2ncc(C#Cc3cccc(F)c3)cn2)[C@@H]2CCC[C@@H]21 [Example 2] | 7 (≈ 20 µM) | 10.6 | NO FLAG | 
4 | CCN1C(=O)N(c2ncc(C#Cc3ccc(F)cc3)cn2)[C@@H]2CCC[C@@H]21 [Example 3] | 4 (≈ 11.4 µM) | 11.5 | NO FLAG | 
5 | CCN1C(=O)N(c2ncc(C#Cc3cc(F)ccc3F)cn2)[C@@H]2CCC[C@@H]21 [Example 4] | 16 (≈ 43.4 µM) | 10 | NO FLAG | 
6 | COCCN1C(=O)N(c2ncc(C#Cc3ccccc3)cn2)[C@@H]2CCC[C@@H]21 [Example 5, (−)-(3aR,6aS)-1-(2-Methoxy-ethyl)-3-(5-phenylethynyl-pyrimidin-2-yl)-hexahydro-cyclopentaimidazol-2-one] | 171 (≈ 472 µM) | 12.5 | NO FLAG | 
7 | COCCN1C(=O)N(c2ncc(C#Cc3cccc(F)c3)cn2)[C@@H]2CCC[C@@H]21 [Example 6] | 114 (≈ 300 µM) | 24.5 | NO FLAG | 
8 | COCCN1C(=O)N(c2ncc(C#Cc3ccc(F)cc3)cn2)[C@@H]2CCC[C@@H]21 [Example 7] | 43 (≈ 113 µM) | 26.8 | NO FLAG | 
9 | COCCN1C(=O)N(c2ncc(C#Cc3cc(F)ccc3F)cn2)[C@@H]2CCC[C@@H]21 [Example 8] | 75 (≈ 188 µM) | 15.7 | NO FLAG | 
10 | COCCCN1C(=O)N(c2ncc(C#Cc3ccccc3)cn2)[C@@H]2CCC[C@@H]21 [Example 9, (−)-(3aR,6aS)-1-(3-Methoxy-propyl)-3-(5-phenylethynyl-pyrimidin-2-yl)-hexahydro-cyclopentaimidazol-2-one] | 153 (≈ 406 µM) | 30.9 | NO FLAG | 
11 | COCCCN1C(=O)N(c2ncc(C#Cc3cccc(F)c3)cn2)[C@@H]2CCC[C@@H]21 [Example 10] | 115 (≈ 292 µM) | 31.6 | NO FLAG | 
12 | COCCCN1C(=O)N(c2ncc(C#Cc3ccc(F)cc3)cn2)[C@@H]2CCC[C@@H]21 [Example 11] | 56 (≈ 142 µM) | 35 | NO FLAG | 
13 | CN1C(=O)N(c2ccc(C#Cc3ccccc3)cn2)[C@@H]2CCC[C@@H]21 [Ref. 1 Ex. 106, reference compound] |  | 8 |  | 0.011 (≈ 0.0347 µM)
14 | CN1C(=O)N(c2ccc(C#Cc3ccccc3)nn2)[C@@H]2CCC[C@@H]21 [Ref. 1 Ex. 170, reference compound] | 2 (≈ 6.28 µM) | 8.1 | FLAG | 
